The kinase profiling compilation of Christmann-Franck et al. (2016)
Values joined by “and” are separate entries in the source; they are usually repeats but may differ in a detail not shown here. Equal values may be shown once.

What was measured:
Assay in all cases: KINOMEscan competition binding
Details in all cases: compound 0.1 µM
[1] = target: JAK2 JH1 catalytic (human) (UniProt O60674)
[2] = target: CAMK4 (human) (UniProt Q16566)
[3] = target: CDK15 (human) (UniProt Q96Q40)
[4] = target: FER (human) (UniProt P16591)
[5] = target: CAMK2B (human) (UniProt Q13554)
[6] = target: TESK1 (human) (UniProt Q15569)
[7] = target: MAP3K14 (human) (UniProt Q99558)
[8] = target: MAST1 (human) (UniProt Q9Y2H9)
Chain of MAST1 (human) (Q9Y2H9 whole entry, looked up): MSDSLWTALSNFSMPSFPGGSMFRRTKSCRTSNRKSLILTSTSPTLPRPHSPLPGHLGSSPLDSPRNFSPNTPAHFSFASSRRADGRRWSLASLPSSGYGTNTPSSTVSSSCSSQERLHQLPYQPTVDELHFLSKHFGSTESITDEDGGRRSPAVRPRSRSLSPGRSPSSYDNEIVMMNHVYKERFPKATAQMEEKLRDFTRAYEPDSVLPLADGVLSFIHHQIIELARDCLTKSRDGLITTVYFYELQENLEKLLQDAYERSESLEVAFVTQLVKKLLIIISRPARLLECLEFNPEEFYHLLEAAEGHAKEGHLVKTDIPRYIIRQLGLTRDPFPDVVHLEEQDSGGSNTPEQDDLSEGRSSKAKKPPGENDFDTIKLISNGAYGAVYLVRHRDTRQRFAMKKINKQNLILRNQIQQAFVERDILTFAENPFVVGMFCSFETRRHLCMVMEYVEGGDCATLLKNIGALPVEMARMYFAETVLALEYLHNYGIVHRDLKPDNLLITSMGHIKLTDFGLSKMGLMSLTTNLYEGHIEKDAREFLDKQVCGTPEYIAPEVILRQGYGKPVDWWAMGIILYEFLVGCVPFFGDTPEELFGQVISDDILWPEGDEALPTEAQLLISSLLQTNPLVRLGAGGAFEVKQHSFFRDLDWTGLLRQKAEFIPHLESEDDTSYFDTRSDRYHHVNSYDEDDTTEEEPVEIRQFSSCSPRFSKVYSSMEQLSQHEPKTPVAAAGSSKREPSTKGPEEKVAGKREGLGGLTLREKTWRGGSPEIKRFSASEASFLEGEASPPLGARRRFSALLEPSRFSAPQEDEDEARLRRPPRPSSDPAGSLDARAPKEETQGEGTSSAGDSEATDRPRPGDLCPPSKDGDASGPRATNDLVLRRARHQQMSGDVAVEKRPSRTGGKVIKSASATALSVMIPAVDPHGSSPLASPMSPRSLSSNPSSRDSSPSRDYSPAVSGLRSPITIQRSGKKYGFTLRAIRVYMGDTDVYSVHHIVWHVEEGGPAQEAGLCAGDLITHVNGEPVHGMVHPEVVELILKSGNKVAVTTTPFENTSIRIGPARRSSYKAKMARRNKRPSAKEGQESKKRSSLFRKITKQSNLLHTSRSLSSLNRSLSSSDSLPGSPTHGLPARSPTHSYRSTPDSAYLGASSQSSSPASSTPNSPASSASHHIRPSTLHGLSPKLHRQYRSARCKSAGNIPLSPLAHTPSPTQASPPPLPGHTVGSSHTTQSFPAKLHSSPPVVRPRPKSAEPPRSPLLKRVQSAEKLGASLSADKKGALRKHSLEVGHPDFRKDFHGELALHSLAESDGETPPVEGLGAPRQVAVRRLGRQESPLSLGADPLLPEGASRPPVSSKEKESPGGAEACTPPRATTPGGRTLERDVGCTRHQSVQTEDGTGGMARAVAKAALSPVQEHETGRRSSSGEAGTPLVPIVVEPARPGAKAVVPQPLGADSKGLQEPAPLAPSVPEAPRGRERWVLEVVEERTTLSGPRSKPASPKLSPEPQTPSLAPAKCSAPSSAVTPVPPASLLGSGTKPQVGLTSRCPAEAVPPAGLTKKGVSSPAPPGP

[9] = target: TNK1 (human) (UniProt Q13470)
[10] = system: MET (human), P08581 [Y1235D]
[11] = target: FRK (human) (UniProt P42685)
[12] = target: PRKD1 (human) (UniProt Q15139)
Chain of PRKD1 (human) (Q15139 whole entry, looked up): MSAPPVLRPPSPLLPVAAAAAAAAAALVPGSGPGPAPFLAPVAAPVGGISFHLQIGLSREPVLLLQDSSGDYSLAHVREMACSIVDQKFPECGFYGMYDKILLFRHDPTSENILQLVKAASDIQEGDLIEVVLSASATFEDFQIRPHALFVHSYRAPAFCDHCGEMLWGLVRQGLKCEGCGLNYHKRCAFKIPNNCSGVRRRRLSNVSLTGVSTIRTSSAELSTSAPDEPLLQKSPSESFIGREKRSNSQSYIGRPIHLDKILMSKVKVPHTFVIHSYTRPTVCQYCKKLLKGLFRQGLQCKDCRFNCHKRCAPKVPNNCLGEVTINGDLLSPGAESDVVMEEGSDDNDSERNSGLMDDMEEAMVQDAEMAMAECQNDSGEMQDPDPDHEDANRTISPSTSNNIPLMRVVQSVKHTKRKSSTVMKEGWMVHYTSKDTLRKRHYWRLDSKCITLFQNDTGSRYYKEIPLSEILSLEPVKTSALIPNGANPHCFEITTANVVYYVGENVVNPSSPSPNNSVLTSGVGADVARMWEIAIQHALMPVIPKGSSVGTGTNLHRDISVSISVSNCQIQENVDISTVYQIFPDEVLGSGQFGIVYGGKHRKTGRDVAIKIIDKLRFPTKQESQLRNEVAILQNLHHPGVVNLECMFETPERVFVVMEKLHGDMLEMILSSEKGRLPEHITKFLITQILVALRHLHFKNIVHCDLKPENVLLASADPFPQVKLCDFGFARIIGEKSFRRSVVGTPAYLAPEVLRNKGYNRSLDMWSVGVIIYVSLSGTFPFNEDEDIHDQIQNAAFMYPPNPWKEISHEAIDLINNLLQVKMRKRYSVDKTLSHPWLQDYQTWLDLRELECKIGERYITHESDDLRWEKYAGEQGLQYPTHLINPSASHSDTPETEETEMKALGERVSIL

[13] = target: GRK4 (human) (UniProt P32298)
Chain of GRK4 (human) (P32298 whole entry, looked up): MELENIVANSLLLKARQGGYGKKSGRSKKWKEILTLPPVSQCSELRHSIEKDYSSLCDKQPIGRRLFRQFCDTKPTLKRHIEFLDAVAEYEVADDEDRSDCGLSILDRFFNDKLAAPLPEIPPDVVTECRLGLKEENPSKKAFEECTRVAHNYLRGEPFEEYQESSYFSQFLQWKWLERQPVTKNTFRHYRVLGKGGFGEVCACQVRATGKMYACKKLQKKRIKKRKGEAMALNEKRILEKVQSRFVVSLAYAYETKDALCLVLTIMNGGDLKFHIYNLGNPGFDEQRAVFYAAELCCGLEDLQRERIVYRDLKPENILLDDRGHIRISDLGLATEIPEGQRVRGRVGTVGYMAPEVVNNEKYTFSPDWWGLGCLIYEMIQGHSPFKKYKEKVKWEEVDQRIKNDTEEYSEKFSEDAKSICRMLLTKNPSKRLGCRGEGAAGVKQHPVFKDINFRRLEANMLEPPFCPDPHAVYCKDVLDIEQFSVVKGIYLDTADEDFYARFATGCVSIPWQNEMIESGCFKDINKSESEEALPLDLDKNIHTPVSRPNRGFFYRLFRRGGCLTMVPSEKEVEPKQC

[14] = target: MAP4K1 (human) (UniProt Q92918)
[15] = target: MAP3K13 (human) (UniProt O43283)
[16] = target: FLT3 (human) (UniProt P36888)
Chain of FLT3 (human) (P36888 whole entry, looked up): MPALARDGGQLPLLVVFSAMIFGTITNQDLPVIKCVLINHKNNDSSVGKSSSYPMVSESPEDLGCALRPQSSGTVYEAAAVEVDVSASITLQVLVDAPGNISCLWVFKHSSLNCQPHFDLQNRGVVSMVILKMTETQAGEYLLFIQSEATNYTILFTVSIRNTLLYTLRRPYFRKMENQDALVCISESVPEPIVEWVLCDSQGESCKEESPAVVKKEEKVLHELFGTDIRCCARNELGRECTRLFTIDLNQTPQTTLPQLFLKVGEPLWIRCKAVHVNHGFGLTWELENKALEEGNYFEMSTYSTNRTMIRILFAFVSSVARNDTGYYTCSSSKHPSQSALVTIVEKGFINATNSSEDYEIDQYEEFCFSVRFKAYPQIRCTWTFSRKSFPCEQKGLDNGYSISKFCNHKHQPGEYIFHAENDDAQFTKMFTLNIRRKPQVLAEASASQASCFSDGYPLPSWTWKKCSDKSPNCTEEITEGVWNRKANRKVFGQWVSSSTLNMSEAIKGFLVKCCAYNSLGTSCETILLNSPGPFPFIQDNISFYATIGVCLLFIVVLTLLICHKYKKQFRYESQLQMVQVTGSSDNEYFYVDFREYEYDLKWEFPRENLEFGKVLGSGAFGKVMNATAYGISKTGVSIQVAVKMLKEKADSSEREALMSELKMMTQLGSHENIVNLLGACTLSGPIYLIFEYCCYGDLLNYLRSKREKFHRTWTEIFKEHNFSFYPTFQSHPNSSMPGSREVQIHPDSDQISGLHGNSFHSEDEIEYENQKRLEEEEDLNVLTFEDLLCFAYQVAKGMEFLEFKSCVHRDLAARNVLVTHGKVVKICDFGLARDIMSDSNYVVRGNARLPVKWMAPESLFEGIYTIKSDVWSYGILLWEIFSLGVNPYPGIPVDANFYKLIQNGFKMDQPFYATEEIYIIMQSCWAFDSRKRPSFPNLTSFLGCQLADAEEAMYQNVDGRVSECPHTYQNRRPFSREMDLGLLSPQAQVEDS

[17] = system: EGFR (human), P00533 [L861Q]
[18] = target: DYRK1A (human) (UniProt Q13627)
[19] = target: FGFR2 (human) (UniProt P21802)
[20] = target: NEK6 (human) (UniProt Q9HC98)
[21] = system: PIK3CA (human), P42336 [Q546K]
[22] = system: PIK3CA (human), P42336 [E545K]
[23] = target: CHEK2 (human) (UniProt O96017)
[24] = target: MYLK2 (human) (UniProt Q9H1R3)
Chain of MYLK2 (human) (Q9H1R3 whole entry, looked up): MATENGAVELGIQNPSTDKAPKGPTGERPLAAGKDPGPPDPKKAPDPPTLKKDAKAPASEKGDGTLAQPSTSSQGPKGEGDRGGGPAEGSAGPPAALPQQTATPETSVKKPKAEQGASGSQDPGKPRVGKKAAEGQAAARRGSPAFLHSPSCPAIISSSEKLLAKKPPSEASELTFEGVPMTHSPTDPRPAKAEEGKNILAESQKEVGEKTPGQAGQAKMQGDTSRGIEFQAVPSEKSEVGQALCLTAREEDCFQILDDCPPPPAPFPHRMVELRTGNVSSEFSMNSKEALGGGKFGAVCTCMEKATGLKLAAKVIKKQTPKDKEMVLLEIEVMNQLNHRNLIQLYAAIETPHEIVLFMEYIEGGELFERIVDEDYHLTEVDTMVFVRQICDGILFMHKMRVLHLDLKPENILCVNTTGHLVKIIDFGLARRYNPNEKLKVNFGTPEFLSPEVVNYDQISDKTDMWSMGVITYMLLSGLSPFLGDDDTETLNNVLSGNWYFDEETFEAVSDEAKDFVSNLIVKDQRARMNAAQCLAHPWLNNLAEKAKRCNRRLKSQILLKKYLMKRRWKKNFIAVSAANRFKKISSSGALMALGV

[25] = target: PIM2 (human) (UniProt Q9P1W9)
Chain of PIM2 (human) (Q9P1W9 whole entry, looked up): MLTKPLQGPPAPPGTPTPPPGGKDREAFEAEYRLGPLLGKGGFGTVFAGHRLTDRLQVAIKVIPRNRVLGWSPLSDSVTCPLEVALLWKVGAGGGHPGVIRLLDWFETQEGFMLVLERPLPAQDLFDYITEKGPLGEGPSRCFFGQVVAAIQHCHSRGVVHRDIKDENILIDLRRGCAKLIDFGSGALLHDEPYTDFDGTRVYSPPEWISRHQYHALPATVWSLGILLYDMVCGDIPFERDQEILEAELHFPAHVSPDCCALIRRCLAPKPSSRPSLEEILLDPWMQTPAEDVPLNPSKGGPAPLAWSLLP

[26] = target: CDK19 (human) (UniProt Q9BWU1)
[27] = target: GRK7 (human) (UniProt Q8WTQ7)
[28] = system: KIT (human), P10721 [V559D/T670I]
[29] = target: RIPK1 (human) (UniProt Q13546)
[30] = target: CSK (human) (UniProt P41240)
[31] = target: EPHA6 (human) (UniProt Q9UF33)
[32] = target: ERN1 (human) (UniProt O75460)
[33] = target: TTK (human) (UniProt P33981)
[34] = system: KIT (human), P10721 [V559D]
[35] = system: PIK3CA (human), P42336 [H1047L]
[36] = target: ACVR1 (human) (UniProt Q04771)
[37] = target: PIK3CB (human) (UniProt P42338)
[38] = system: EGFR (human), P00533 [G719S]
[39] = target: LATS2 (human) (UniProt Q9NRM7)
[40] = target: PRKACB (human) (UniProt P22694)

SMILES: CCc1ccc(C(=O)Nc2cc(CN3CCN(C)CC3)cc(C(F)(F)F)c2)cc1C#Cc1cnc2ccnn2c1
- kinase still bound, per cent of control [1]: 100%
- kinase still bound, per cent of control [2]: 100%
- kinase still bound, per cent of control [3]: 100%
- kinase still bound, per cent of control [4]: 70%
- kinase still bound, per cent of control [5]: 72%
- kinase still bound, per cent of control [6]: 73%
- kinase still bound, per cent of control [7]: 85%
- kinase still bound, per cent of control [8]: 100%
- kinase still bound, per cent of control [9]: 52%
- kinase still bound, per cent of control [10]: 55%
- kinase still bound, per cent of control [11]: 47%
- kinase still bound, per cent of control [12]: 100%
- kinase still bound, per cent of control [13]: 97%
- kinase still bound, per cent of control [14]: 100%
- kinase still bound, per cent of control [15]: 71%
- kinase still bound, per cent of control [16]: 78% and 100%
- kinase still bound, per cent of control [17]: 100%
- kinase still bound, per cent of control [18]: 100%
- kinase still bound, per cent of control [19]: 100%
- kinase still bound, per cent of control [20]: 100%
- kinase still bound, per cent of control [21]: 100%
- kinase still bound, per cent of control [22]: 100%
- kinase still bound, per cent of control [23]: 100%
- kinase still bound, per cent of control [24]: 100%
- kinase still bound, per cent of control [25]: 96%
- kinase still bound, per cent of control [26]: 90%
- kinase still bound, per cent of control [27]: 100%
- kinase still bound, per cent of control [28]: 96%
- kinase still bound, per cent of control [29]: 100%
- kinase still bound, per cent of control [30]: 92%
- kinase still bound, per cent of control [31]: 63%
- kinase still bound, per cent of control [32]: 100%
- kinase still bound, per cent of control [33]: 77%
- kinase still bound, per cent of control [34]: 24%
- kinase still bound, per cent of control [35]: 100%
- kinase still bound, per cent of control [36]: 84%
- kinase still bound, per cent of control [37]: 100%
- kinase still bound, per cent of control [38]: 100%
- kinase still bound, per cent of control [39]: 100%
- kinase still bound, per cent of control [40]: 100%
